Patent US8278326B2, “Inhibitors of protein phosphatase-1 and uses thereof” (Howard University, priority 2008, dated 2012)

Tests used:
HIV-1 transcription [1] = experiment: Inhibition of Tat-induced HIV-1 transcription in Ad-Tat-infected CEM GFP reporter cells; format: cell-based; settings: for inhibition of HIV-1 transcription in CEM cells: CEM T-cells, 1H4-based library, in words
Method: (§1) Identification of the inhibitory compounds: The library was analyzed for the inhibition of HIV-1 transcription using reporter CEM GFP cells (courtesy of AIDS Reagents Program, NIH) that were infected with adenovirus expressing HIV-1 Tat activator protein (Ad-Tat) as previously described (Nekhai et al., 2007). Infection of CEM-GFP cells with Adeno-Tat induced HIV-1 transcription that was measured as gain of GFP fluorescence (Nekhai et al., 2007). Compounds were added at 25 μM concentration to the Ad-Tat-infected CEM-GFP cells and incubated for 24-48 hours. Cytotoxicity was evaluated by the uptake of propidium iodide (PI).

HIV-1 N155H = experiment: Inhibition of HIV-1 replication, N155H (Table 6); format: cell-based; settings: read-out: N155H, IC50
Method: (§2) Compounds 1H4, 1E07, B03 and as a control 1G3 were analyzed for inhibition of HIV-1 replication and results are shown in Table 6.

HIV-1 Q148R = experiment: Inhibition of HIV-1 replication, Q148R (Table 6); format: cell-based; settings: read-out: Q148R, IC50
Method: as §2

CEM GFP cells = experiment: Cytotoxicity in CEM cells by uptake of propidium iodide; format: cell-based; settings: 1H4-based library
Method: as §1
Identification of addition inhibitors. The 1H4 compound was used to create a second library of compounds that would have similar backbone as 1H4. This second library contained 143 compounds. These compounds were analyzed for the inhibition of HIV-1 transcription and toxicity in CEM T-cells and 293T cells similar as described above for the analysis of the first library.

[2] = system: Tat-induced HIV-1 transcription; experiment: Inhibition of Tat-induced HIV-1 transcription in 293T cells transfected with Tat-expressing vector, HIV-1 LTR-LacZ reporter and CMV-EGFP reporter; format: cell-based; settings: for inhibition of Tat-induced HIV-1 transcription in 293T cells: in words
Method: (§3) The compounds from Table 2 were further evaluated using 293T cells transfected with Tat- and HIV-1 LTR-LacZ. […] Compounds 1H4, 3C8, and 1G3 were further evaluated in 293T cells transfected with Tat-expressing vector, HIV-1 LTR-LacZ reporter and CMV-EGFP reporter. Inhibitory properties of these compounds were evaluated using 293T cells transfected with Tat-expressing vector, HIV-1 LTR-LacZ reporter and CMV-EGFP reporter (Ammosova et al., 2005a). 293T cells were transfected with lipofectamine and then treated with each of the selected compounds for 18 hours. Then the cells were lysed and GFP and β-galactosidase activity was determined as we previously described (Ammosova et al., 2005a). Compound 1H4 was the most inhibitory with IC50=5 μM (FIG. 1B). […] Neither of the compounds was cytotoxic as determined by LDH assay (not shown).

HIV-1 IIIB = experiment: Inhibition of HIV-1 replication, IIIB (Table 6); format: cell-based; settings: for inhibition of HIV-1 replication: Table 6 (IIIB, Q148R, N155H); for IC50: read-out: IIIB, IC50, HIV-1 replication
Method: as §2

HIV-1 transcription [3] = experiment: Inhibition of transcription, FIG. 1A (293T cells transfected with Tat- and HIV-1 LTR-LacZ); format: cell-based
Method: as §3

PP1 = experiment: Tat-PP1 competition assay (PP1 activity); format: biochemical; settings: for effect on Tat-mediated inhibition of PP1: 50 μM compound, 4 nM PP1, glycylglycine buffer (FIG. 3A)
Method: (§4) Competition assays were performed with 4 nM PP1 in glycylglycine buffer. […] To analyze if 1H4 compound has an effect on the activity of CDK2 we incubated recombinant CDK2/cyclin E with histone H1 without or with the addition of increasing concentrations of 1H4.

recombinant pNL4-3 HIV-1 = experiment: HIV-1 replication in MT4 cells infected with recombinant pNL4-3 HIV-1; format: cell-based; settings: for inhibition of HIV-1 replication: MT4 cells, 1H4 at 10 μM or 25 μM (FIG. 2)
Method: HIV-1 replication is inhibited by a small molecular mimetic of QVCF peptide. The 1H4 compound was evaluated to determine whether it could inhibit HIV-1 replication. MT4 cells were infected with recombinant pNL4-3 HIV-1 and treated with different concentrations of 1H4 compound and as a control 1G3 compound.

293T cells = experiment: Measurements of cytotoxicity, FIG. 1A; format: cell-based
Method: as §3

[4] = target: recombinant CDK2/cyclin E (Homo sapiens, UniProt P24941); experiment: CDK2/cyclin E activity with histone H1; format: biochemical; settings: increasing concentrations; histone H1 substrate
Method: as §4

Molecule	IC50 (HIV-1 N155H) [µM]	IC50 (HIV-1 Q148R) [µM]	inhibition of Tat-induced HIV-1 transcription in 293T cells [2]	inhibition of HIV-1 replication (HIV-1 IIIB)	IC50 (HIV-1 IIIB) [µM]	other results
CC(OC(=O)c1c2c(nc3ccccc13)/C(=C/c1ccc(Cl)cc1)CC2)C(=O)NC(N)=O (centres unmarked)						inhibition of HIV-1 transcription (HIV-1 transcription [1]; cell line not stated, appeared to increase the rate of transcription instead): ineffective for inhibition of HIV-1 transcription
COc1ccc(C(CNC(=O)CN2CCc3ccccc3C2)c2c[nH]c3ccccc23)cc1 (centres unmarked) [1E07]	3.2	1.5	inhibited HIV-1 transcription	inhibited HIV-1 replication	2.5	toxicity in the propidium iodide uptake assay (CEM GFP cells): not toxic; inhibition of HIV-1 transcription in CEM cells (HIV-1 transcription [1]): inhibited HIV-1 transcription
COc1ccc(C(CNC(=O)CN2CCc3ccccc3C2)c2c[nH]c3ccccc23)cc1 (centres unmarked) [1G3, reference compound]	59	42			37	inhibition of HIV-1 transcription (FIG. 1A) (HIV-1 transcription [3]): neither inhibitory nor toxic; effect on Tat-mediated inhibition of PP1 (PP1): did not affect Tat-mediated inhibition of PP1; induction of HIV-1 replication (recombinant pNL4-3 HIV-1; MT4 cells (FIG. 2)): about 2 fold; inhibition of HIV-1 replication (recombinant pNL4-3 HIV-1): did not inhibit HIV-1 replication; cytotoxicity (FIG. 1A) (293T cells): neither inhibitory nor toxic
COc1ccc(C(CNC(=O)CN2CCc3ccccc3C2)c2c[nH]c3ccccc23)cc1 (centres unmarked) [1H4]	8	4.7		inhibited HIV-1 replication	9.4	effect on the activity of CDK2 [4]: did not have a significant effect; inhibition of HIV-1 transcription (FIG. 1A) (HIV-1 transcription [3]): inhibited HIV-1 transcription; effect on Tat-mediated inhibition of PP1 (PP1): relieved Tat-mediated inhibition of PP1; IC50 ([2]; Human immunodeficiency virus 1, HEK-293T, read-out: Transcription inh. in 293T cells (IC-50)): 5 µM; inhibition of HIV-1 replication (recombinant pNL4-3 HIV-1): inhibited HIV-1 replication; cytotoxicity (FIG. 1A) (293T cells): not toxic
COc1ccc(C(CNC(=O)CN2CCc3ccccc3C2)c2c[nH]c3ccccc23)cc1 (centres unmarked) [2F02]			inhibited HIV-1 transcription			inhibition of HIV-1 transcription in CEM cells (HIV-1 transcription [1]): inhibited HIV-1 transcription
COc1ccc(C(CNC(=O)CN2CCc3ccccc3C2)c2c[nH]c3ccccc23)cc1 (centres unmarked) [B03]			inhibitory	not inhibitory		
COc1ccc(C(CNC(=O)CN2CCc3ccccc3C2)c2c[nH]c3ccccc23)cc1 (centres unmarked) [E06]			inhibitory			
Tat: HIV-1 Tat protein that binds to the RVxF pocket of PP1 (protein, UniProt P04608 1-86, looked up) Protein Tat: MEPVDPRLEPWKHPGSQPKTACTNCYCKKCCFHCQVCFITKALGISYGRKKRRQRRRAHQNSQTHQASLSKQPTSQPRGDPTGPKE						inhibition of PP1 (PP1; excess of Tat protein, 4 nM PP1 (FIG. 3A)): inhibited PP1
